Converted amounts (≈) assume the structure as drawn.

Holding throughout (type): functional
Assay [1] relates to Chromobacterium violaceum. The experiment in a line: Antibacterial activity against Chromobacterium violaceum MTCC 2656 assessed as growth arrest at 37 degC for 24 hr. Conditions: MTCC 2656, 24 h.
Assay [2] concerns Staphylococcus aureus. The experiment in a line: Antibacterial activity against Staphylococcus aureus MTCC 96 assessed as inhibition zones at 300 ug/disc at 37 degC for 24 hr. As to conditions: MTCC 96, 24 h, read-out: IZ.
Assay [3] has as its system Pseudomonas aeruginosa. The assay can be described thus: Antibacterial activity against Pseudomonas aeruginosa MTCC 741 assessed as growth arrest at 37 degC for 24 hr. Conditions: MTCC 741, 24 h.
The subject of assay [4] is Aspergillus fumigatus. The experiment in a line: Antifungal activity against Aspergillus fumigatus HIC 6094 assessed as growth inhibition at 37 degC for 48 hr. Conditions: HIC 6094, 48 h.
Assay [5] concerns Klebsiella aerogenes. The experiment in a line: Antibacterial activity against Enterobacter aerogenes MTCC 39 assessed as growth arrest at 37 degC for 24 hr. Conditions: MTCC 39, 24 h.
Assay [6] has as its system Trichophyton rubrum. The assay can be described thus: Antifungal activity against Trichophyton rubrum IFO 9185 assessed as growth inhibition at 300 ug/disk at 37 degC for 48 hr. Conditions: IFO 9185, 48 h, read-out: IZ.
The subject of assay [7] is Aspergillus fumigatus. The experiment in a line: Antifungal activity against Aspergillus fumigatus HIC 6094 assessed as growth inhibition at 300 ug/disc at 37 degC for 48 hr. As to conditions: HIC 6094, 48 h, read-out: IZ.
The subject of assay [8] is Candida albicans. The experiment in a line: Antifungal activity against Candida albicans ATCC 10231 assessed as growth inhibition at 300 ug/disk at 37 degC for 48 hr. As to conditions: ATCC 10231, 48 h, read-out: IZ.
Assay [9] has as its system Bacillus subtilis. The assay can be described thus: Antibacterial activity against Bacillus subtilis MTCC 441 assessed as growth arrest at 37 degC for 24 hr. Conditions: MTCC 441, 24 h.
Assay [10] has as its system Ditylenchus myceliophagus. The experiment in a line: Nematicidal activity against Ditylenchus myceliophagus assessed as immobility. As to conditions: read-out: LD50 (the source's name).
The test system of assay [11] is Trichophyton mentagrophytes. The assay can be described thus: Antifungal activity against Trichophyton mentagrophytes IFO 40996 assessed as growth inhibition at 300 ug/disc at 37 degC for 48 hr. Conditions: IFO 40996, 48 h, read-out: IZ.
Assay [12] deals with Lysinibacillus sphaericus. The assay can be described thus: Antibacterial activity against Lysinibacillus sphaericus MTCC 11 assessed as growth arrest at 37 degC for 24 hr. As to conditions: MTCC 11, 24 h.
The test system of assay [13] is Staphylococcus aureus. The assay can be described thus: Antibacterial activity against Staphylococcus aureus MTCC 96 assessed as growth arrest at 37 degC for 24 hr. As to conditions: MTCC 96, 24 h.
Assay [14] has as its system Lysinibacillus sphaericus. The assay can be described thus: Antibacterial activity against Lysinibacillus sphaericus MTCC 11 assessed as inhibition zones at 300 ug/disk at 37 degC for 24 hr. Conditions: MTCC 11, 24 h, read-out: IZ.
The test system of assay [15] is Chromobacterium violaceum. The experiment in a line: Antibacterial activity against Chromobacterium violaceum MTCC 2656 assessed as inhibition zones at 300 ug/disk at 37 degC for 24 hr. Conditions: MTCC 2656, 24 h, read-out: IZ.
The test system of assay [16] is Bacillus subtilis. The assay can be described thus: Antibacterial activity against Bacillus subtilis MTCC 441 assessed as inhibition zones at 300 ug/disk at 37 degC for 24 hr. As to conditions: MTCC 441, 24 h, read-out: IZ.
Assay [17] concerns Candida albicans. The experiment in a line: Antifungal activity against Candida albicans ATCC 10231 assessed as growth inhibition at 37 degC for 48 hr. Conditions: ATCC 10231, 48 h.
Assay [18] concerns Pseudomonas aeruginosa. The experiment in a line: Antibacterial activity against Pseudomonas aeruginosa MTCC 741 assessed as inhibition zones at 300 ug/disk at 37 degC for 24 hr. Conditions: MTCC 741, 24 h, read-out: IZ.
The subject of assay [19] is Klebsiella aerogenes. The experiment in a line: Antibacterial activity against Enterobacter aerogenes MTCC 39 assessed as inhibition zones at 300 ug/disk at 37 degC for 24 hr. As to conditions: MTCC 39, 24 h, read-out: IZ.
For assay [20], the system named is Trichophyton rubrum. The experiment in a line: Antifungal activity against Trichophyton rubrum IFO 9185 assessed as growth inhibition at 37 degC for 48 hr. As to conditions: IFO 9185, 48 h.
Assay [21] deals with Trichophyton mentagrophytes. The experiment in a line: Antifungal activity against Trichophyton mentagrophytes IFO 40996 assessed as growth inhibition at 37 degC for 48 hr. As to conditions: IFO 40996, 48 h.
In another assay the test system is Caenorhabditis elegans. The experiment in a line: Nematicidal activity against Caenorhabditis elegans assessed as immobility. Conditions: read-out: LD50 (the source's name).

Consider `COc1ccc(Cc2ccc(OC)c(C3SC4C(=NN(c5ccc(Cl)cc5)C4c4ccc(F)cc4)N3c3ccc(C)cc3)c2)cc1C1SC2C(=NN(c3ccc(Cl)cc3)C2c2ccc(F)cc2)N1c1ccc(C)cc1` (stereo unspecified), for which the MBC amounted to 25 µg/mL (≈ 23.3 µM) in assay [1]; 25 µg/mL (≈ 23.3 µM) in the assay with Pseudomonas aeruginosa [3]; 12.5 µg/mL (≈ 11.7 µM) with Aspergillus fumigatus [4]; 50 µg/mL (≈ 46.6 µM) with Klebsiella aerogenes [5]; 25 µg/mL (≈ 23.3 µM) in the assay on Bacillus subtilis [9]; 25 µg/mL (≈ 23.3 µM) in assay [12]. Further, the MBC came out at 25 µg/mL (≈ 23.3 µM) with Staphylococcus aureus [13], 25 µg/mL (≈ 23.3 µM) in the assay on Candida albicans [17], 12.5 µg/mL (≈ 11.7 µM) with Trichophyton rubrum [20] and 12.5 µg/mL (≈ 11.7 µM) in [21]. Further, the MIC turned out to be 12.5 µg/mL (≈ 11.7 µM) in assay [1]; 6.25 µg/mL (≈ 5.83 µM) in the assay on Pseudomonas aeruginosa [3]; 6.25 µg/mL (≈ 5.83 µM) in the assay with Aspergillus fumigatus [4]; 12.5 µg/mL (≈ 11.7 µM) in the assay with Klebsiella aerogenes [5]; 12.5 µg/mL (≈ 11.7 µM) in the assay on Bacillus subtilis [9]; 12.5 µg/mL (≈ 11.7 µM) in [12]. The MIC was 12.5 µg/mL (≈ 11.7 µM) with Staphylococcus aureus [13], 12.5 µg/mL (≈ 11.7 µM) in the assay with Candida albicans [17], 6.25 µg/mL (≈ 5.83 µM) with Trichophyton rubrum [20] and 6.25 µg/mL (≈ 5.83 µM) in assay [21]. For the same compound, the zone of inhibition at 300 µg/disc with Staphylococcus aureus [2] amounted to 29 mm; in the assay on Trichophyton rubrum [6], 11 mm; in the assay with Aspergillus fumigatus [7], 11 mm; in the assay with Candida albicans [8], 13 mm; in assay [11] it was 10 mm; in assay [14], 17 mm. Also, the zone of inhibition at 300 µg/disc in [15] amounted to 21 mm; in the assay on Bacillus subtilis [16], 17 mm; in the assay with Pseudomonas aeruginosa [18] it was 11 mm; with Klebsiella aerogenes [19] it was 18 mm. The LC50 in assay [10] was found to be 240 µg/mL (≈ 224 µM); in the assay on Caenorhabditis elegans, 360 µg/mL (≈ 336 µM).

For the compound `COc1ccc(Cc2ccc(OC)c(C3SC4C(=NN(C)C4c4ccc(F)cc4)N3c3ccc(C)cc3)c2)cc1C1SC2C(=NN(C)C2c2ccc(F)cc2)N1c1ccc(C)cc1` (stereo unspecified), the MBC is 12.5 µg/mL (≈ 14.2 µM) in assay [1]; 12.5 µg/mL (≈ 14.2 µM) in the assay on Pseudomonas aeruginosa [3]; 6.25 µg/mL (≈ 7.11 µM) with Aspergillus fumigatus [4]; 12.5 µg/mL (≈ 14.2 µM) in the assay with Klebsiella aerogenes [5]; 50 µg/mL (≈ 56.9 µM) with Bacillus subtilis [9]; 25.5 µg/mL (≈ 29 µM) in assay [12]. Moreover, the MBC with Staphylococcus aureus [13] turned out to be 25 µg/mL (≈ 28.4 µM); in the assay on Candida albicans [17], 3.12 µg/mL (≈ 3.55 µM); in the assay on Trichophyton rubrum [20] it was 6.25 µg/mL (≈ 7.11 µM); in assay [21] it was 12.5 µg/mL (≈ 14.2 µM). Further, the MIC in assay [1] worked out at 6.25 µg/mL (≈ 7.11 µM); in the assay on Pseudomonas aeruginosa [3], 12.5 µg/mL (≈ 14.2 µM); in the assay on Aspergillus fumigatus [4], 3.12 µg/mL (≈ 3.55 µM); with Klebsiella aerogenes [5] it was 6.25 µg/mL (≈ 7.11 µM); in the assay on Bacillus subtilis [9], 6.25 µg/mL (≈ 7.11 µM); in [12], 12.5 µg/mL (≈ 14.2 µM). The MIC with Staphylococcus aureus [13] turned out to be 12.5 µg/mL (≈ 14.2 µM); in the assay with Candida albicans [17], 3.12 µg/mL (≈ 3.55 µM); in the assay on Trichophyton rubrum [20] it was 3.12 µg/mL (≈ 3.55 µM); in [21], 6.25 µg/mL (≈ 7.11 µM). Besides, the zone of inhibition at 300 µg/disc was 25 mm in the assay on Staphylococcus aureus [2]; 20 mm in the assay with Trichophyton rubrum [6]; 20 mm in the assay on Aspergillus fumigatus [7]; 20 mm with Candida albicans [8]; 18 mm in assay [11]; 13 mm in assay [14]. In addition, the zone of inhibition at 300 µg/disc worked out at 18 mm in assay [15], 13 mm in the assay on Bacillus subtilis [16], 14 mm in the assay with Pseudomonas aeruginosa [18] and 20 mm with Klebsiella aerogenes [19]. In addition, the LC50 came to 160 µg/mL (≈ 182 µM) in [10] and 200 µg/mL (≈ 228 µM) in the assay on Caenorhabditis elegans.

With `CNC(=O)O/N=C(\SC)C(=O)N(C)C` [OXAMYL], the figures for the LC50 (in assay [10]; with Caenorhabditis elegans) were 150 µg/mL (≈ 684 µM) and 180 µg/mL (≈ 821 µM), respectively.

The MIC is the least concentration at which growth counts as inhibited.

Source of the values: ChEMBL document CHEMBL3045223, “Synthesis, nematicidal and antimicrobial properties of Bis-[4-methoxy-3-[3-(4-fluorophenyl)-6-(4-methylphenyl)-2(aryl)-tetrahydro-2H-pyrazolo[3,4-d]thiazol-5-yl]phenyl]methanes” (2009).
